Entries after “also recorded” stand apart in the source; their conditions may differ.

Data on four compounds can be found in patent publication US10213397B2, “Microtubule polymerization modulators for treating LMNA-related dilated cardiomyopathy” (priority 2016, dated 2019).

For data set [1], the system named is patient diagnosed with LMNA-related DCM. The experiment in a line: Treatment of patient diagnosed with LMNA-related dilated cardiomyopathy (case report). The class given is in vivo, human. The settings on record: for patient's condition: carvedilol 25 mg twice daily with eplerenone 25 mg once daily, before colchicine. From the text: In August of 2013 patient […] was diagnosed with LMNA-related DCM, also known as “cardiac laminopathy,” an inherited degenerative cardiac disorder characterized by left ventricular dilation, arrhythmia, and cardiac enlargement. It is a subset of “non-ischemic cardiomyopathy.”
The patient worked as a college professor and the patient's condition worsened throughout the 2013-14 school year. The patient was heading toward long-term disability due to fatigue, shortness of breath and palpitations, all due to their progressive heart failure. In October, an implantable defibrillator was placed in the patient's chest, and the patient was hospitalized twice for cardiac arrhythmias (i.e., once for excessive premature ventricular contractions or TVCs′, and once for cardiac resynchronization for atrial fibrillation). Because conventional heart failure therapy appeared unsuccessful at ameliorating disease effects, the patient undertook a comprehensive review of literature on laminopathy to find a novel treatment.
In June 2014, the patient began experiencing PVC-burden cardiomyopathy, a secondary myopathy caused by a heavy premature ventricular contraction (PVC) load. Their PVCs were measured at 52,000 over a 48-hour holter-monitor. Given their deteriorating condition, now with NYHA class III heart failure, they sought care at Northwestern University's Bluhm Cardiovascular Institute in Chicago with Dr. Jane Wilcox.
Dr. Wilcox adjusted the patient's existing medication regimen to reflect best practice for treating dilated cardiomyopathy. The patient began taking 25 mg twice daily of carvedilol, as well as 25 mg once daily of eplerenone.
In January 2015, the patient underwent an unsuccessful procedure to ablate cardiac tissue causing their PVC burden. Their heart ejection fraction (EF), previously measured at 55%, was now measured at 45%. Later that month, the patient was hospitalized for Sotalol (antiarrhythmic drug) initiation. Sotalol was also unsuccessful in treating the patient's PVCs.
The patient had been very symptomatic with PVC's and could tell when his they were having PVC's.
Further, the patient was now considered to have NYHA class I heart failure symptoms and able to resume all previous activities, including running and biking, whereas previously the patient was NYHA class III (i.e., heart failure symptoms with mild activity).
As of July 2016, the patient stopped taking Sotalol because it seemed superfluous in respect to the patient's carvedilol regimen, and the patient has continued to be NYHA class I (i.e. asymptomatic).

The next data set concerns LMNA cells. The settings on record: laboratory studies, reference 4 (Larrieu et al.); cited from earlier work.
For data set [2] the following is noted: cited from earlier work.
Data set [3] deals with familial Mediterranean fever (FMF). The conditions noted are these: long-term use; reference 3; cited from earlier work.

For `CC(C)NCC(O)c1ccc(NS(C)(=O)=O)cc1` (stereo not drawn) [Sotalol], the “treatment of the patient's PVCs” value in data set [1] (January 2015, before colchicine) was “unsuccessful”.

With `COc1ccccc1OCCNCC(O)COc1cccc2[nH]c3ccccc3c12` (stereo not drawn) [carvedilol], the “patient's condition” value in data set [1] is listed as “continued to deteriorate”.

As to `COc1cc2c(c(OC)c1OC)-c1ccc(OC)c(=O)cc1[C@@H](NC(C)=O)CC2` [colchicine], the “nuclear shape defects characteristic of LMNA cells” value with LMNA cells was “rescue nuclear shape defects”. Further, in data set [1] (1.8 mg colchicine twice daily (3.6 mg total dose), monitored for myelosuppression), the negative side effects result is “no negative side effects; also recorded: has not experienced negative side effects”. For the same compound, the “NYHA class of heart failure symptoms” value in data set [1] (August 2015, previously NYHA class III) was “NYHA class I”. The “improvement in cardiac output, measured non-invasively using LVOT velocity time integral (VTI)” value in data set [1] (August 2015 echocardiogram, colchicine started early 2015) stood at 20%. Besides, the “ventricular remodeling (left ventricular size and volume)” value in data set [1] (February 2016 echocardiogram) is “positive ventricular remodeling”. The “cardiac output (LVOT)” value in data set [1] (February 2016 echocardiogram, LVOT initially was 15) was 22. This compound also had an ejection fraction in data set [1] (February 2016 echocardiogram, improvement from 40-45%) of 55%. The “NYHA class of heart failure symptoms” value in data set [1] (as of July 2016, after stopping eplerenone and Sotalol) was “NYHA class I”. Moreover, the “general condition / overall health of the patient” value in data set [1] (on colchicine, at higher doses than typically used for gout) is recorded as “dramatic recovery; also recorded: continued to improve”. In addition, the PVC volume result in data set [1] (within 48 hours of colchicine administration, patient with LMNA-related DCM) was “diminished considerably”. Further, the “toxicity with P-gp or strong CYP3A4 inhibitors” value in data set [2] (patients with renal or hepatic impairment, colchicine taken in therapeutic doses) was “life-threatening and fatal colchicine toxicity”. Moreover, in data set [2] (reported adverse reactions), the “frequency of agranulocytosis, thrombocytopenia, aplastic anemia, leukopenia, granulocytopenia, pancytopenia (hematologic, rare)” value is given as “less than 0.1%”; the “frequency of alopecia (dermatologic, rare)” value is reported as “less than 0.1%”; the “frequency of azoospermia, oligospermia (genitourinary, rare)” value is recorded as “less than 0.1%”; the “frequency of myopathy, rhabdomyolysis, elevated CPK, myotonia, muscle weakness, muscle pain (musculoskeletal, rare)” value was “less than 0.1%”. For the same compound, the “frequency of pharyngolaryngeal pain (respiratory, common)” value in data set [2] (reported adverse reactions) is listed as 3%. The “treatment of FMF (preventing attacks, reduction of symptoms, prevention and treatment of amyloidosis)” value in data set [3] was “very effective”.

`COC(=O)[C@@H]1CC2=CC(=O)CC[C@]2(C)[C@@]23O[C@@H]2C[C@@]2(C)[C@@H](CC[C@@]24CCC(=O)O4)[C@H]13` [eplerenone]: the “reason for ceasing drug (potassium levels)” value in data set [1] (March 2016) is on record as “elevated potassium levels”. For the same compound, the “patient's condition” value in data set [1] is “continued to deteriorate”.
